Assay results taken from patent US8048927B2 (Besins Healthcare Luxembourg, priority 2004, dated 2011).

Assay: pharmacokinetics of 4-hydroxy tamoxifen gel in healthy premenopausal women (Example 3)
Type: in vivo, human
Settings: for Plasma concentration of 4-hydroxy tamoxifen, Range: First cycle Day 1, 0 hr; for AUC0-24, Mean ± SD / Cav = AUC0-24/24, Mean ± SD / Cmax, Mean ± SD / tmax, Mean ± SD: last administration, day 25 of second cycle
Experimental: Each participant applied the gel daily for the duration of two menstrual cycles.
At the end of a menstrual cycle, each patient received a single dose, after which serial blood samples were collected at 0, 0.5, 1, 1.5, 2, 3, 4, 6, 12, 18, 24, 36, 48, and 72 hours.
On the first day of the following menstruation, treatment, which consisted of daily application of the gel over two menstrual cycles, began. Blood samples were collected 24 hours following the morning application of gel on days 7, 20 and 25 of the first and second cycles. On the last day of administration, day 25 of the second menstrual cycle, serial blood samples were collected prior to application and at 0.5, 1, 1.5, 2, 3, 4, 6, 12, 18, 24, 36, 48, and 72 hours after application of the gel.

**Q.** Which “Plasma concentration of 4-hydroxy tamoxifen, Range” value (shortened to “Plasma concentration … Range”) (0.5 mg/day, gel 20 mg/100 g) does the source give for `CCC(=C(c1ccc(O)cc1)c1ccc(OCCN(C)C)cc1)c1ccccc1` [4-hydroxy tamoxifen, 1-[4-(2-N-dimethylaminoethoxy)phenyl]-1-(4-hydroxyphenyl)-2-phenylbut-1-ene] here?
**A.** (0-17.2) pg/mL

**Q.** What about the “Plasma concentration of 4-hydroxy tamoxifen, Mean ± SD” value (0.5 mg/day, gel 20 mg/100 g, First cycle Day 7, 24 hr after application) of the same molecule?
**A.** 0.0064 ± 0.0056 ng/mL

**Q.** What about the “Plasma concentration of 4-hydroxy tamoxifen, Mean ± SD” value (0.5 mg/day, gel 20 mg/100 g, First cycle Day 20, 24 hr after application) of the same molecule?
**A.** 0.0136 ± 0.0079 ng/mL

**Q.** What about the “Plasma concentration of 4-hydroxy tamoxifen, Mean ± SD” value (0.5 mg/day, gel 20 mg/100 g, First cycle Day 25, 24 hr after application) of the same molecule?
**A.** 0.0239 ± 0.0234 ng/mL

**Q.** And the “Plasma concentration of 4-hydroxy tamoxifen, Mean ± SD” value (0.5 mg/day, gel 20 mg/100 g, Second cycle Day 7, 24 hr after application)?
**A.** 0.0252 ± 0.0161 ng/mL

**Q.** What about the “Plasma concentration of 4-hydroxy tamoxifen, Mean ± SD” value (0.5 mg/day, gel 20 mg/100 g, Second cycle Day 20, 24 hr after application) of the same molecule?
**A.** 0.0157 ± 0.014 ng/mL

**Q.** What about the “Plasma concentration of 4-hydroxy tamoxifen, Mean ± SD” value (0.5 mg/day, gel 20 mg/100 g, Second cycle Day 25, 0 hr (24 hours after Day 24 application, prior to final application)) of the same molecule?
**A.** 0.0108 ± 0.0099 ng/mL

**Q.** What about the “Plasma concentration of 4-hydroxy tamoxifen, Mean ± SD” value (0.5 mg/day, gel 20 mg/100 g, Second cycle Day 25, 0.5 hr after application) of the same molecule?
**A.** 0.0109 ± 0.0074 ng/mL

**Q.** And the “Plasma concentration of 4-hydroxy tamoxifen, Mean ± SD” value (0.5 mg/day, gel 20 mg/100 g, Second cycle Day 25, 1 hr after application)?
**A.** 0.0104 ± 0.0078 ng/mL

**Q.** And the “Plasma concentration of 4-hydroxy tamoxifen, Mean ± SD” value (0.5 mg/day, gel 20 mg/100 g, Second cycle Day 25, 1.5 hr after application)?
**A.** 0.009 ± 0.0082 ng/mL

**Q.** And the “Plasma concentration of 4-hydroxy tamoxifen, Mean ± SD” value (0.5 mg/day, gel 20 mg/100 g, Second cycle Day 25, 2 hr after application)?
**A.** 0.0118 ± 0.0095 ng/mL

**Q.** What about the “Plasma concentration of 4-hydroxy tamoxifen, Mean ± SD” value (0.5 mg/day, gel 20 mg/100 g, Second cycle Day 25, 3 hr after application) of the same molecule?
**A.** 0.01 ± 0.0079 ng/mL

**Q.** And the “Plasma concentration of 4-hydroxy tamoxifen, Mean ± SD” value (0.5 mg/day, gel 20 mg/100 g, Second cycle Day 25, 4 hr after application)?
**A.** 0.0092 ± 0.0083 ng/mL

**Q.** What about the “Plasma concentration of 4-hydroxy tamoxifen, Mean ± SD” value (0.5 mg/day, gel 20 mg/100 g, Second cycle Day 25, 6 hr after application) of the same molecule?
**A.** 0.0114 ± 0.0085 ng/mL

**Q.** And the “Plasma concentration of 4-hydroxy tamoxifen, Mean ± SD” value (0.5 mg/day, gel 20 mg/100 g, Second cycle Day 25, 12 hr after application)?
**A.** 0.011 ± 0.0097 ng/mL

**Q.** What about the “Plasma concentration of 4-hydroxy tamoxifen, Mean ± SD” value (0.5 mg/day, gel 20 mg/100 g, Second cycle Day 25, 18 hr after application) of the same molecule?
**A.** 0.0097 ± 0.0088 ng/mL

**Q.** What about the “Plasma concentration of 4-hydroxy tamoxifen, Mean ± SD” value (0.5 mg/day, gel 20 mg/100 g, Second cycle Day 26, 24 hr after last application) of the same molecule?
**A.** 0.0124 ± 0.0094 ng/mL

**Q.** And the “Plasma concentration of 4-hydroxy tamoxifen, Mean ± SD” value (0.5 mg/day, gel 20 mg/100 g, Second cycle Day 26, 36 hr after last application)?
**A.** 0.0109 ± 0.0069 ng/mL

**Q.** What about the “Plasma concentration of 4-hydroxy tamoxifen, Mean ± SD” value (0.5 mg/day, gel 20 mg/100 g, Second cycle Day 27, 48 hr after last application) of the same molecule?
**A.** 0.0121 ± 0.0065 ng/mL

**Q.** And the “Plasma concentration of 4-hydroxy tamoxifen, Mean ± SD” value (0.5 mg/day, gel 20 mg/100 g, Second cycle Day 28, 72 hr after last application)?
**A.** 0.0099 ± 0.0071 ng/mL

**Q.** What about the “Plasma concentration of 4-hydroxy tamoxifen” value (0.5 mg/day, gel 20 mg/100 g, after the second cycle, +8 days, LOQ <5 pg/mL) of the same molecule?
**A.** <LOQ

**Q.** What about the “Plasma concentration of 4-hydroxy tamoxifen, maximum” value (0.5 mg/day, gel 20 mg/100 g, after the second cycle, +12 days) of the same molecule?
**A.** (maximum 9.09) pg/mL

**Q.** What about the “Plasma concentration of 4-hydroxy tamoxifen” value (0.5 mg/day, gel 20 mg/100 g, after the second cycle, +20 days) of the same molecule?
**A.** 0 ng/mL

**Q.** And the “AUC0-24, Mean ± SD” value (0.5 mg/day, gel 20 mg/100 g)?
**A.** 0.2563 ± 0.2053 ng·h/mL

**Q.** What about the “Cav = AUC0-24/24, Mean ± SD” value (0.5 mg/day, gel 20 mg/100 g) of the same molecule?
**A.** 0.0107 ± 0.0085 ng/mL

**Q.** What about the “Cmax, Mean ± SD” value (0.5 mg/day, gel 20 mg/100 g) of the same molecule?
**A.** 0.017 ± 0.0085 ng/mL

**Q.** And the “tmax, Mean ± SD” value (0.5 mg/day, gel 20 mg/100 g)?
**A.** 40 ± 81 h

**Q.** What about the “Plasma concentration … Range” value (1 mg/day, gel 20 mg/100 g) of the same molecule?
**A.** (0-13.9) pg/mL

**Q.** And the “Plasma concentration of 4-hydroxy tamoxifen, Mean ± SD” value (1 mg/day, gel 20 mg/100 g, First cycle Day 7, 24 hr after application)?
**A.** 0.0152 ± 0.0097 ng/mL

**Q.** And the “Plasma concentration of 4-hydroxy tamoxifen, Mean ± SD” value (1 mg/day, gel 20 mg/100 g, First cycle Day 20, 24 hr after application)?
**A.** 0.0173 ± 0.0095 ng/mL

**Q.** And the “Plasma concentration of 4-hydroxy tamoxifen, Mean ± SD” value (1 mg/day, gel 20 mg/100 g, First cycle Day 25, 24 hr after application)?
**A.** 0.0155 ± 0.0066 ng/mL

**Q.** And the “Plasma concentration of 4-hydroxy tamoxifen, Mean ± SD” value (1 mg/day, gel 20 mg/100 g, Second cycle Day 7, 24 hr after application)?
**A.** 0.0174 ± 0.0112 ng/mL

**Q.** What about the “Plasma concentration of 4-hydroxy tamoxifen, Mean ± SD” value (1 mg/day, gel 20 mg/100 g, Second cycle Day 20, 24 hr after application) of the same molecule?
**A.** 0.0148 ± 0.0065 ng/mL

**Q.** And the “Plasma concentration of 4-hydroxy tamoxifen, Mean ± SD” value (1 mg/day, gel 20 mg/100 g, Second cycle Day 25, 0 hr (24 hours after Day 24 application, prior to final application))?
**A.** 0.0157 ± 0.0171 ng/mL

**Q.** And the “Plasma concentration of 4-hydroxy tamoxifen, Mean ± SD” value (1 mg/day, gel 20 mg/100 g, Second cycle Day 25, 0.5 hr after application)?
**A.** 0.0135 ± 0.0091 ng/mL

**Q.** And the “Plasma concentration of 4-hydroxy tamoxifen, Mean ± SD” value (1 mg/day, gel 20 mg/100 g, Second cycle Day 25, 1 hr after application)?
**A.** 0.0108 ± 0.0066 ng/mL

**Q.** And the “Plasma concentration of 4-hydroxy tamoxifen, Mean ± SD” value (1 mg/day, gel 20 mg/100 g, Second cycle Day 25, 1.5 hr after application)?
**A.** 0.0118 ± 0.008 ng/mL

**Q.** And the “Plasma concentration of 4-hydroxy tamoxifen, Mean ± SD” value (1 mg/day, gel 20 mg/100 g, Second cycle Day 25, 2 hr after application)?
**A.** 0.0107 ± 0.0069 ng/mL

**Q.** And the “Plasma concentration of 4-hydroxy tamoxifen, Mean ± SD” value (1 mg/day, gel 20 mg/100 g, Second cycle Day 25, 3 hr after application)?
**A.** 0.0114 ± 0.0079 ng/mL

**Q.** What about the “Plasma concentration of 4-hydroxy tamoxifen, Mean ± SD” value (1 mg/day, gel 20 mg/100 g, Second cycle Day 25, 4 hr after application) of the same molecule?
**A.** 0.0112 ± 0.0073 ng/mL

**Q.** And the “Plasma concentration of 4-hydroxy tamoxifen, Mean ± SD” value (1 mg/day, gel 20 mg/100 g, Second cycle Day 25, 6 hr after application)?
**A.** 0.0107 ± 0.0064 ng/mL

**Q.** What about the “Plasma concentration of 4-hydroxy tamoxifen, Mean ± SD” value (1 mg/day, gel 20 mg/100 g, Second cycle Day 25, 12 hr after application) of the same molecule?
**A.** 0.0118 ± 0.0078 ng/mL

**Q.** What about the “Plasma concentration of 4-hydroxy tamoxifen, Mean ± SD” value (1 mg/day, gel 20 mg/100 g, Second cycle Day 25, 18 hr after application) of the same molecule?
**A.** 0.0122 ± 0.0083 ng/mL

**Q.** What about the “Plasma concentration of 4-hydroxy tamoxifen, Mean ± SD” value (1 mg/day, gel 20 mg/100 g, Second cycle Day 26, 24 hr after last application) of the same molecule?
**A.** 0.0186 ± 0.0142 ng/mL

**Q.** What about the “Plasma concentration of 4-hydroxy tamoxifen, Mean ± SD” value (1 mg/day, gel 20 mg/100 g, Second cycle Day 26, 36 hr after last application) of the same molecule?
**A.** 0.0134 ± 0.0075 ng/mL

**Q.** What about the “Plasma concentration of 4-hydroxy tamoxifen, Mean ± SD” value (1 mg/day, gel 20 mg/100 g, Second cycle Day 27, 48 hr after last application) of the same molecule?
**A.** 0.0125 ± 0.006 ng/mL

**Q.** What about the “Plasma concentration of 4-hydroxy tamoxifen, Mean ± SD” value (1 mg/day, gel 20 mg/100 g, Second cycle Day 28, 72 hr after last application) of the same molecule?
**A.** 0.0099 ± 0.0058 ng/mL

**Q.** What about the “T(1stC < LOQ), first timepoint at which the plasma concentration was below the limit of quantification, Mean ± SD” value (1 mg/day, gel 20 mg/100 g, after last administration) of the same molecule?
**A.** 274 ± 141 h

**Q.** What about the “Plasma concentration of 4-hydroxy tamoxifen, Mean ± SD” value (1 mg/day, gel 20 mg/100 g, after the second cycle, +5 days) of the same molecule?
**A.** 0.0058 ± 0.0052 ng/mL

**Q.** And the “Plasma concentration of 4-hydroxy tamoxifen” value (1 mg/day, gel 20 mg/100 g, after the second cycle, +20 days, LOQ <5 pg/mL)?
**A.** <LOQ

**Q.** And the “AUC0-24, Mean ± SD” value (1 mg/day, gel 20 mg/100 g)?
**A.** 0.3009 ± 0.1908 ng·h/mL

**Q.** And the “Cav = AUC0-24/24, Mean ± SD” value (1 mg/day, gel 20 mg/100 g)?
**A.** 0.0125 ± 0.0079 ng/mL

**Q.** And the “Cmax, Mean ± SD” value (1 mg/day, gel 20 mg/100 g)?
**A.** 0.021 ± 0.004 ng/mL

**Q.** What about the “tmax, Mean ± SD” value (1 mg/day, gel 20 mg/100 g) of the same molecule?
**A.** 24 ± 18 h

**Q.** What about the “Plasma concentration … Range” value (1 mg/day, gel 57 mg/100 g) of the same molecule?
**A.** (0-9.5) pg/mL

**Q.** And the “Plasma concentration of 4-hydroxy tamoxifen, Mean ± SD” value (1 mg/day, gel 57 mg/100 g, First cycle Day 7, 24 hr after application)?
**A.** 0.0144 ± 0.0131 ng/mL

**Q.** What about the “Plasma concentration of 4-hydroxy tamoxifen, Mean ± SD” value (1 mg/day, gel 57 mg/100 g, First cycle Day 20, 24 hr after application) of the same molecule?
**A.** 0.0181 ± 0.0158 ng/mL
